Assay results published in patent EP4722213A1, “NITROGEN-CONTAINING FUNCTIONAL GROUP-SUBSTITUTED PYRIDAZINOPYRIDONE DERIVATIVE AND USE THEREOF” (Sichuan Huiyu Pharmaceutical Co., Ltd., priority 2023, dated 2024).
Where a name gives a salt, the structure may show the parent alone.

Biological target: T1, SOS1 (Homo sapiens, UniProt Q07889)
T1 sequence (Q07889 1-1333): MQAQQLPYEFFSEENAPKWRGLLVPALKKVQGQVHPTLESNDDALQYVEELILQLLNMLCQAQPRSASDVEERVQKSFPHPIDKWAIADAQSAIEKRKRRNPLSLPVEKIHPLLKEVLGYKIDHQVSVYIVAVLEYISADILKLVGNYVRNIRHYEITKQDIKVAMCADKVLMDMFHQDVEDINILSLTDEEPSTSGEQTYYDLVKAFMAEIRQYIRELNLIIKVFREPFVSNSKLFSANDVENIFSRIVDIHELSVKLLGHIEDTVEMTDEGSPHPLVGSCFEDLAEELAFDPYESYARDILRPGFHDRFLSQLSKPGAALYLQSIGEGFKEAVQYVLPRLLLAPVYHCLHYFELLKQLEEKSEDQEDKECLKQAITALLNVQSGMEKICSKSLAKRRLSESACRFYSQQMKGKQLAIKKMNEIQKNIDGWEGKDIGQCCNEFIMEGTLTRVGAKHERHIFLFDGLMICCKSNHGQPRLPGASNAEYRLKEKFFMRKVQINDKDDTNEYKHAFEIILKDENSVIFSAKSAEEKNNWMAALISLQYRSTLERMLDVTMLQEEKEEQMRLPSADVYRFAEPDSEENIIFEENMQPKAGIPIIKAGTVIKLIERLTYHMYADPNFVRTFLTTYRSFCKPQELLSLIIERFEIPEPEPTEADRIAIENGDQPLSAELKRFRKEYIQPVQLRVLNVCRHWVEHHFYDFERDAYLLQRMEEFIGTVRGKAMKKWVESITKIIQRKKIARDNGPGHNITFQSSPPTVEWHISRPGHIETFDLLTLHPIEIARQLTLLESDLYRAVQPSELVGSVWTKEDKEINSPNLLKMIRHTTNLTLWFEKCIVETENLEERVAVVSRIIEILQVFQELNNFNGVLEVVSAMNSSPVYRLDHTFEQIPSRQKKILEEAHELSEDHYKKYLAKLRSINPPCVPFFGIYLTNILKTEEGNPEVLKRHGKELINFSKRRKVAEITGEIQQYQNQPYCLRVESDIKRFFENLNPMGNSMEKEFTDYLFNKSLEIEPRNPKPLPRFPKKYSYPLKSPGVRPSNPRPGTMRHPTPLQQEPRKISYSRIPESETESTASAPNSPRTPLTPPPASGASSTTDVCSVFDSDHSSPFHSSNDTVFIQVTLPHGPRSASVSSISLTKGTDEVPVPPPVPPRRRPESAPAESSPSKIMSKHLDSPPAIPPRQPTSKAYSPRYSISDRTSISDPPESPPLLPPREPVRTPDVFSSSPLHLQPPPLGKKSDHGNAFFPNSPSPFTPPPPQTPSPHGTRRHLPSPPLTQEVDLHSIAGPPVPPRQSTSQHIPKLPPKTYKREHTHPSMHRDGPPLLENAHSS
Experiment: biochemical

With `C[C@@H](Nc1nnc(N2CCN(C3CC3)CC2)c2cc(=O)n(N3CC4CCCC4C3)cc12)c1cccc(C(F)F)c1F` (stereo partly drawn) [Example 142, 4-(((R)-1-(3-(difluoromethyl)-2-fluorophenyl)ethyl)amino)-6-(hexahydrocyclopenta[c]pyrrol-2(1H)-yl)-1-(4-cyclopropylpiperazin-1-yl)-pyrido[3,4-d]pyridazin-7(6H)-one] the IC50 was 10.6 nM.
`Cc1cc(N)cc([C@@H](C)Nc2nnc(N3CCN(C4CC4)CC3)c3cc(=O)n(C4CC4)cc23)c1F` [Example 143, (R)-4-((1-(5-amino-2-fluoro-3-methylphenyl)ethyl)amino)-6-cyclopropyl-1-(4-cyclopropylpiperazin-1-yl)pyrido[3,4-d]pyridazin-7(6H)-one] was tested, and the IC50 was 11.5 nM.
`CCN1CCN(c2nnc(N[C@H](C)c3cc(N)cc(C)c3F)c3cn(C4CC4)c(=O)cc23)CC1` [Example 144, (R)-4-((1-(5-amino-2-fluoro-3-methylphenyl)ethyl)amino)-6-cyclopropyl-1-(4-ethylpiperazin-1-yl)pyrido[3,4-d]pyridazin-7(6H)-one formate] was tested, and the IC50 was 6.7 nM.
Work on `CCN1CCN(c2nnc(N[C@H](C)c3cccc(C#N)c3C)c3cn(C)c(=O)cc23)CC1` [Example 145, (R)-3-(1-((1-(4-ethylpiperazin-1-yl)-6-methyl-7-oxo-6,7-dihydropyrido[3,4-d]pyridazin-4-yl)amino)ethyl)-2-methylbenzonitrile formate] yielded an IC50 of 7.8 nM.
With `C[C@@H](Nc1nnc(N2CCN(C3CCCC3)CC2)c2cc(=O)n(C)cc12)c1cccc(C(F)F)c1F` [Example 146, (R)-1-(4-cyclopentylpiperazin-1-yl)-4-((1-(3-(difluoromethyl)-2-fluorophenyl)ethyl)amino)-6-methylpyrido[3,4-d]pyridazin-7(6H)-one] the IC50 was 12.5 nM.
With `Cc1cc(N)cc([C@@H](C)Nc2nnc(N3CCN(C(C)C)CC3)c3cc(=O)n(C4CC4)cc23)c1F` [Example 147, (R)-4-((1-(5-amino-2-fluoro-3-methylphenyl)ethyl)amino)-6-cyclopropyl-1-(4-isopropylpiperazin-1-yl)pyrido[3,4-d]pyridazin-7(6H)-one formate] the IC50 was 6.3 nM.
With `Cc1cc(N)cc([C@@H](C)Nc2nnc(N3CCN(C4CCCC4)CC3)c3cc(=O)n(C4CC4)cc23)c1F` [Example 148, (R)-4-((1-(5-amino-2-fluoro-3-methylphenyl)ethyl)amino)-1-(4-cyclopentylpiperazin-1-yl)-6-cyclopropylpyrido[3 ,4-d]pyridazin-7(6H)-one] the IC50 was 6.5 nM.
Molecule `CC(C)N1CCN(c2nnc(N[C@H](C)c3cccc(C(F)F)c3F)c3cn(N4CC5CCCC5C4)c(=O)cc23)CC1` (stereo partly drawn) [Example 149, 4-(((R)-1-(3-(difluoromethyl)-2-fluorophenyl)ethyl)amino)-6-(hexahydrocyclopenta[c]pyrrol-2(1H)-yl)-1-(4-isopropylpiperazin-1-yl)pyrido[3,4-d]pyridazin-7(6H)-one] has an IC50 of 8.6 nM.
`Cc1c(C#N)cccc1[C@@H](C)Nc1nnc(N2CCN(C)CC2)c2cc(=O)n(N3CC4CCCC4C3)cc12` (stereo partly drawn) [Example 150, 3-((1R)-1-((6-(hexahydrocyclopenta[c]pyrrol-2(1H)-yl)-1-(4-methylpiperazin-1-yl)-7-oxo-6,7-dihydropyrido[3,4-d]pyridazin-4-yl)amino)ethyl)-2-methylbenzonitrile] gave an IC50 of 5.5 nM.
With `Cc1cc(N)cc([C@@H](C)Nc2nnc(N3CCN(C)CC3)c3cc(=O)n(C4(C)CC4)cc23)c1F` [Example 152, (R)-4-((1-(5-amino-2-fluoro-3-methylphenyl)ethyl)amino)-6-(1-methylcyclopropyl)-1-(4-methylpiperazin-1-yl)pyrido[3,4-d]pyridazin-7(6H)-one] the IC50 was 4.2 nM.
With `CCN1CCN(c2nnc(N[C@H](C)c3cccc(C#N)c3C)c3cn(N4CC5CCCC5C4)c(=O)cc23)CC1` (stereo partly drawn) [Example 153, 3-((1R)-1-((6-(hexahydrocyclopenta[c]pyrrol-2(1H)-yl)-1-(4-ethylpiperazin-1-yl)-7-oxo-6,7-dihydropyrido[3,4-d]pyridazin-4-yl)amino)ethyl)-2-methylbenzonitrile] the IC50 was 4.6 nM.
Molecule `C[C@@H](Nc1nnc(N2CCN(CC3CC3)CC2)c2cc(=O)n(N3CCN(C)CC3)cc12)c1cccc(C(F)F)c1F` [Example 154, (R)-1-(4-(cyclopropylmethyl)piperazin-1-yl)-4-((1-(3-(difluoromethyl)-2-fluorophenyl)ethyl)amino)-6-(4-methylpiperazin-1-yl)pyrido[3,4-d]pyridazin-7(6H)-one] has an IC50 of 5.4 nM.
With `CC(C)N1CCN(c2nnc(N[C@H](C)c3cccc(C(F)(F)F)c3)c3cn(C4(C)CC4)c(=O)cc23)CC1` [Example 155, (R)-1-(4-isopropylpiperazin-1-yl)-6-(1-methylcyclopropyl)-4-((1-(3-(trifluoromethyl)phenyl)ethyl)amino)pyr ido[3,4-d]pyridazin-7(6H)-one formate] the IC50 was 5.6 nM.
With `C[C@@H](Nc1nnc(NN2CCOCC2)c2cc(=O)n(C3(C)CC3)cc12)c1cccc(C(F)(F)F)c1` [Example 158, (R)-6-(1-methylcyclopropyl)-1-(morpholinoamino)-4-((1-(3-(trifluoromethyl)phenyl)ethyl)amino)pyr ido[3,4-d]pyridazin-7(6H)-one formate] the IC50 was 6.9 nM.
`C[C@@H](Nc1nnc(NN2CCN(C)CC2)c2cc(=O)n(C3(C)CC3)cc12)c1cccc(C(F)(F)F)c1` [Example 159, (R)-6-(1-methylcyclopropyl)-1-((4-methylpiperazin-1-yl)amino)-4-((1-(3-(trifluoromethyl)phenyl)ethyl)amino)pyr ido[3,4-d]pyridazin-7(6H)-one formate] was tested, and the IC50 was 6.4 nM.
`CCN1CCN(c2nnc(N[C@H](C)c3cc(N)cc(C)c3F)c3cn(C4(C)CC4)c(=O)cc23)CC1` [Example 160, (R)-4-((1-(5-amino-2-fluoro-3-methylphenyl)ethyl)amino)-1-(4-ethylpiperazin-1-yl)-6-(1-methylcyclopropyl) pyrido[3,4-d]pyridazin-7(6H)-one formate] was tested, and the IC50 was 5.7 nM.
`Cc1cc(N)cc([C@@H](C)Nc2nnc(N3CCN(C(C)C)CC3)c3cc(=O)n(C4(C)CC4)cc23)c1F` [Example 161, (R)-4-((1-(5-amino-2-fluoro-3-methylphenyl)ethyl)amino)-1-(4-isopropylpiperazin-1-yl)-6-(1-methylcyclopropyl) pyrido[3,4-d]pyridazin-7(6H)-one] showed an IC50 of 5.2 nM.
`Cc1cc(N)cc([C@@H](C)Nc2nnc(N3CCN(C4CC4)CC3)c3cc(=O)n(C4(C)CC4)cc23)c1F` [Example 162, (R)-4-((1-(5-amino-2-fluoro-3-methylphenyl)ethyl)amino)-1-(4-cyclopropylpiperazin-1-yl)-6-(1-methylcyclopropyl) pyrido[3,4-d]pyridazin-7(6H)-one] gave an IC50 of 6.7 nM.
For `Cc1c(C#N)cccc1[C@@H](C)Nc1nnc(N2CC[C@H](CO)C2)c2cc(=O)n(N3CC4CCCC4C3)cc12` (stereo partly drawn) [Example 166, 3-((1R)-1-((6-(hexahydrocyclopenta[c]pyrrol-2(1H)-yl)-1-((S)-3-(hydroxymethyl)pyrrolidin-1-yl)-7-oxo-6,7-dihydropyrido[3,4-d]pyridazin-4-yl)amino)ethyl)-2-methylbenzonitrile], the IC50 was 9.7 nM.
Molecule `Cc1c(C#N)cccc1[C@@H](C)Nc1nnc(N2CCN(C)[C@H](C)C2)c2cc(=O)n(N3CC4CCCC4C3)cc12` (stereo partly drawn) [Example 167, 3-((1R)-1-((1-((R)-3,4-dimethylpiperazin-1-yl)-6-(hexahydrocyclopenta[c]pyrrol-2(1H)-yl)-7-oxo-6,7-dihydropyrido[3,4-d]pyridazin-4-yl)amino)ethyl)-2-methylbenzonitrile] has an IC50 of 6.3 nM.
For `CC(C)N1CCN(c2nnc(N[C@H](C)c3cccc(C(F)(F)F)c3F)c3cn(C4(C)CC4)c(=O)cc23)CC1` [Example 169, (R)-4-((1-(2-fluoro-3-(trifluoromethyl)phenyl)ethyl)amino)-1-(4-isopropylpiperazin-1-yl)-6-(1-methylcyclopropyl) pyrido[3,4-d]pyridazin-7(6H)-one], the IC50 was 4.7 nM.
With `C[C@@H](Nc1nnc(N2CCN(C3CC3)CC2)c2cc(=O)n(C3(C)CC3)cc12)c1cccc(C(F)(F)F)c1F` [Example 170, (R)-4-((1-(2-fluoro-3-(trifluoromethyl)phenyl)ethyl)amino)-1-(4-cyclopropylpiperazin-1-yl)-6-(1-methylcyclopropyl) pyrido[3,4-d]pyridazin-7(6H)-one] the IC50 was 6.7 nM.
